Test results published in patent publication US4468511A, “C-20- And C-23-Modified macrolide derivatives” (Eli Lilly and Company, priority 1983, dated 1984).
Values after ≈ are worked out from the molar mass of the structure shown. Where two headings read alike, the source gives them in different places.

Experiments:
Escherichia coli EC14 = assay: MIC, standard agar-dilution assay; assay type: cell-based; settings: agar-dilution; Escherichia coli EC14; read-out: MIC
Method: (§1) Certain of the derivatives are active against some gram-negative bacteria, such as Pasteurella species. The MIC's in Table II were determined by standard agar-dilution assays. The MIC's in Table III were obtained using a conventional broth-dilution microtiter test.

Escherichia coli TEM = assay: MIC, standard agar-dilution assay; assay type: cell-based; settings: agar-dilution; Escherichia coli TEM; read-out: MIC
Procedure, shortened: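 Minimum inhibitory concentrations against Escherichia coli were measured with a standard agar-dilution method. The result for each derivative is the lowest concentration that inhibits bacterial growth, given in ug/mL.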

[1] = test system: Klebsiella pneumoniae KAE; assay: MIC, standard agar-dilution assay; assay type: cell-based; settings: agar-dilution; Klebsiella pneumoniae KAE; read-out: MIC
Procedure, shortened: (§2)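 Two formats were used. Broth dilution in microtiter plates served for Pasteurella and Mycoplasma, while agar dilution served for Klebsiella.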

[2] = test system: Klebsiella pneumoniae X26; assay: MIC, standard agar-dilution assay; assay type: cell-based; settings: agar-dilution; Klebsiella pneumoniae X26; read-out: MIC
Procedure, shortened: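 The Klebsiella MIC was obtained by agar-dilution assay. Other organisms (Pasteurella hemolytica, Pasteurella multocida, Mycoplasma gallisepticum) were tested by conventional broth microdilution.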

[3] = test system: Staphylococcus aureus V41; assay: MIC, standard agar-dilution assay; assay type: cell-based; settings: Staphylococcus aureus, V41
Method: as §1

[4] = test system: Staphylococcus aureus X1.1; assay: MIC, standard agar-dilution assay; assay type: cell-based; settings: Staphylococcus aureus, X1.1
Procedure, shortened: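 Minimum inhibitory concentration against Staphylococcus aureus strain X1.1 was measured with a standard agar-dilution method. The result is reported as the MIC in ug/mL, i.e. the lowest compound concentration in agar that prevents visible growth of this organism.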

[5] = test system: Streptococcus Group D X66; assay: MIC, standard agar-dilution assay; assay type: cell-based
Method: as §1

[6] = test system: Streptococcus pneumoniae Park I; assay: MIC, standard agar-dilution assay; assay type: cell-based; settings: Streptococcus pneumoniae
Method: as §1

[7] = test system: Streptococcus pyogenes 9960; assay: MIC, standard agar-dilution assay; assay type: cell-based; settings: agar-dilution, Streptococcus 9960, read-out: MIC
Method: as §1

[8] = test system: Streptococcus pyogenes C203; assay: MIC, standard agar-dilution assay; assay type: cell-based; settings: Streptococcus pyogenes, C203
Method: as §1

[9] = test system: Haemophilus influenzae 76; assay: MIC, standard agar-dilution assay; assay type: cell-based; settings: Haemophilus influenzae, 76
Method: (§3) The MIC's in Table II were determined by standard agar-dilution assays. The MIC's in Table III were obtained using a conventional broth-dilution microtiter test.

[10] = test system: Haemophilus influenzae C.L.; assay: MIC, standard agar-dilution assay; assay type: cell-based; settings: Haemophilus influenzae
Method: as §3

[11] = test system: Staphylococcus aureus X400; assay: MIC, standard agar-dilution assay; assay type: cell-based; settings: Staphylococcus aureus, X400
Method: as §3

[12] = test system: Staphylococcus epidermidis EPI2; assay: MIC, standard agar-dilution assay; assay type: cell-based; settings: agar-dilution; Staphylococcus epidermidis EPI2; read-out: MIC
Method: as §3

[13] = test system: Staphylococcus aureus S13E; assay: microbe, parasite or virus in culture; assay type: cell-based
Method: as §3

[14] = test system: Staphylococcus epidermidis EPI1; assay: microbe, parasite or virus in culture; assay type: cell-based; settings: Staphylococcus epidermidis, EPI1
Method: as §3

[15] = test system: Mycoplasma gallisepticum 34159; assay: MIC, conventional broth-dilution microtiter test; assay type: cell-based; settings: Mycoplasmoides gallisepticum; broth-dilution microtiter; Mycoplasma gallisepticum 34159, Resistant strain; read-out: MIC
Procedure, shortened: as §2

[16] = test system: Mycoplasma gallisepticum 41313; assay: MIC, conventional broth-dilution microtiter test; assay type: cell-based; settings: Mycoplasmoides gallisepticum; broth-dilution microtiter; Mycoplasma gallisepticum 41313, Resistant strain; read-out: MIC
Procedure, shortened: as §2

Mycoplasma gallisepticum = assay: MIC, conventional broth-dilution microtiter test; assay type: cell-based; settings: Mycoplasmoides gallisepticum
Procedure, shortened: as §2

Mycoplasma hyorhinis = assay: MIC, conventional broth-dilution microtiter test; assay type: cell-based; settings: broth-dilution microtiter; Mycoplasma hyorhinis; read-out: MIC
Procedure, shortened: (§4)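 Minimum inhibitory concentrations are determined by conventional broth dilution in microtiter wells for Pasteurella and Mycoplasma isolates. For Klebsiella pneumoniae KAE, the standard agar-dilution assay is used.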

Mycoplasma synoviae = assay: MIC, conventional broth-dilution microtiter test; assay type: cell-based; settings: Mycoplasmopsis synoviae; broth-dilution microtiter; Mycoplasma synoviae; read-out: MIC
Procedure, shortened: as §4

[17] = test system: Pasteurella hemolytica 22C; assay: MIC, conventional broth-dilution microtiter test; assay type: cell-based; settings: broth-dilution microtiter; Pasteurella hemolytica 22C; read-out: MIC
Procedure, shortened: as §2

[18] = test system: Pasteurella hemolytica 23C; assay: MIC, conventional broth-dilution microtiter test; assay type: cell-based; settings: broth-dilution microtiter; Pasteurella hemolytica 23C; read-out: MIC
Procedure, shortened: as §2

[19] = test system: Pasteurella hemolytica 41D; assay: MIC, conventional broth-dilution microtiter test; assay type: cell-based; settings: broth-dilution microtiter; Pasteurella hemolytica 41D; read-out: MIC
Procedure, shortened: as §2

[20] = test system: Pasteurella multocida 17E; assay: MIC, conventional broth-dilution microtiter test; assay type: cell-based; settings: broth-dilution microtiter; Pasteurella multocida 17E, Bovine isolate; read-out: MIC
Procedure, shortened: as §2

[21] = test system: Pasteurella multocida 22A; assay: MIC, conventional broth-dilution microtiter test; assay type: cell-based; settings: broth-dilution microtiter; Pasteurella multocida 22A; read-out: MIC
Procedure, shortened: as §2

[22] = test system: Pasteurella multocida 40G; assay: MIC, conventional broth-dilution microtiter test; assay type: cell-based; settings: broth-dilution microtiter; Pasteurella multocida 40G; read-out: MIC
Procedure, shortened: as §2

[23] = test system: Pasteurella multocida 60A; assay: MIC, conventional broth-dilution microtiter test; assay type: cell-based; settings: broth-dilution microtiter; Pasteurella multocida 60A, Avian isolate; read-out: MIC
Procedure, shortened: as §2

[24] = test system: Pasteurella multocida 68C; assay: MIC, conventional broth-dilution microtiter test; assay type: cell-based; settings: broth-dilution microtiter; Pasteurella multocida 68C; read-out: MIC
Procedure, shortened: as §2

Staphylococcus aureus = assay: MIC, conventional broth-dilution microtiter test; assay type: cell-based
Method: as §1

Streptococcus sp. 80 = assay: MIC, conventional broth-dilution microtiter test; assay type: cell-based; settings: Streptococcus, SP.80
Method: as §1

[25] = test system: Streptococcus pyogenes C203; assay: Protection of mice experimentally infected with S. pyogenes C203; assay type: in vivo
Method: Some of the derivatives of this invention have shown in vivo antimicrobial activity against experimentally-induced infections in laboratory animals. When two doses of test compound were administered to mice experimentally infected with S. pyogenes C203, the activity observed was measured as an ED50 value [effective dose in mg/kg to protect 50% of the test animals: see Warren Wick, et al., J. Bacteriol. 81, 233-235 (1961)].

Pasteurella multocida = assay: Pasteurella infection in one-day old chicks; assay type: in vivo; settings: subcutaneous, 30 mg/kg × 2, 1 and 4 hours post-challenge

SMILES: CCC1CC(C)C(=O)C=CC(C)=CC(COc2cccnc2)C(CC)OC(=O)CC(O)C(C)C1OC1OC(C)C(O)C(N(C)C)C1O (stereo not shown) [Compound 46, 23-O-(3-Pyridyl)-20-deoxy-20-dihydro-OMT]
- MIC (Escherichia coli EC14): > 128 µg/mL
- MIC (Escherichia coli TEM): 128 µg/mL (≈ 194 µM)
- MIC [1]: > 128 µg/mL
- MIC [2]: 4 µg/mL (≈ 6.05 µM)
- MIC [3]: 0.5 µg/mL (≈ 0.757 µM)
- MIC [4]: 1 µg/mL (≈ 1.51 µM)
- MIC [5]: 2 µg/mL (≈ 3.03 µM)
- MIC [6]: 0.5 µg/mL (≈ 0.757 µM)
- MIC [7]: 4 µg/mL (≈ 6.05 µM)
- MIC [8]: 2 µg/mL (≈ 3.03 µM)
- MIC [9]: 16 µg/mL (≈ 24.2 µM)
- MIC [10]: 16 µg/mL (≈ 24.2 µM)
- MIC [11]: 2 µg/mL (≈ 3.03 µM)
- MIC [12]: 0.25 µg/mL (≈ 0.378 µM)
- MIC [13]: 1 µg/mL (≈ 1.51 µM)
- MIC [14]: 1 µg/mL (≈ 1.51 µM)
- MIC [15]: 50 µg/mL (≈ 75.7 µM)
- MIC [16]: 50 µg/mL (≈ 75.7 µM)
- MIC (Mycoplasma gallisepticum): 1.56 µg/mL (≈ 2.36 µM)
- MIC (Mycoplasma hyorhinis): 25 µg/mL (≈ 37.8 µM)
- MIC (Mycoplasma synoviae): 6.25 µg/mL (≈ 9.46 µM)
- MIC [17]: 50 µg/mL (≈ 75.7 µM)
- MIC [18]: 50 µg/mL (≈ 75.7 µM)
- MIC [19]: 25 µg/mL (≈ 37.8 µM)
- MIC [20]: 12.5 µg/mL (≈ 18.9 µM)
- MIC [21]: 12.5 µg/mL (≈ 18.9 µM)
- MIC [22]: 12.5 µg/mL (≈ 18.9 µM)
- MIC [23]: 12.5 µg/mL (≈ 18.9 µM)
- MIC [24]: 6.25 µg/mL (≈ 9.46 µM)
- MIC (Staphylococcus aureus): 1.56 µg/mL (≈ 2.36 µM)
- MIC (Streptococcus sp. 80): 3.12 µg/mL (≈ 4.72 µM)
- ED50 ([25]; C203, po, read-out: ED50 Oral): > 100 mg/kg
- ED50 ([25]; C203, sc, mice, subcutaneous, mg/kg × 2, doses given 1 and 4 hours postinfection, read-out: ED50 Subcutaneous): > 10 mg/kg
- Number of Deaths/Number Treated (Pasteurella multocida): 10/10
